In patent US7811352B2, “Fertilizer compositions and methods of using” (priority 2005, dated 2010):

Key:
Assay type in all cases: in vivo
[1] = test system: lawn height, Kentucky bluegrass; assay: Injury rating of lawn height Kentucky bluegrass after fertilization (Example 5); settings: about two weeks after application
Procedure: In this Example, the efficacy of fertilizers on lawn height, Kentucky bluegrass was examined. Fertilizer compositions according to several embodiments of the present disclosure were prepared and compared to the commercial fertilizer products, urea 46-0-0 (granular) fertilizer, Lebanon fertilizer 21-0-12 (granular, commercially available from Lebanon Seaboard Corporation, Lebanon, Pa.) and Milorganite 6-2-0 (granular, commercially available from Milorganite, Milwaukee, Wis.). The fertilizer compositions were applied to the turf grass prior to winter dormancy at a rate equivalent to supplying about 1.0 pounds of nitrogen (N) per 1000 square feet. Each of the fertilizer compositions were applied at substantially equal rates of lbs of nitrogen (N) per 1000 square feet. Table 2 illustrates the response of lawn height, Kentucky bluegrass to fertilization using various exemplary fertilizers of the present invention, taken about two weeks after application of the fertilizer. The letters in the Color and Injury columns correspond to Duncan's Multiple Range Test.

Bermuda grass [2] = assay: Turfgrass quality and color ratings, Bermuda grass fairway (Example 10); parameters: key: 1-10; 10 = dark green turf, 1 = dead/brown, 6 = minimally acceptable; settings: scale 1-10
Text: In this Example, the effect of a fertilizer comprising lysine on warm season turfgrass growth was examined. The effects of lysine (HCl) and LIQUID LYSINE on a common type of golf course fairway quality turfgrass (Bermuda grass) were compared with those of urea and Milorganite.
Fifteen fertilizer treatments comprising three concentrations of each fertilizer composition (Milorganite (N—P—K, 6-2-0), urea (N—P—K, 46-0-0), LIQUID LYSINE (N—P—K, 10-2-1), and both granular and aqueous lysine (HCl) (N—P—K, 15-2-1)) were prepared and applied to 4 replications of Bermuda grass. The aqueous lysine (HCl) was dissolved in water prior to application. Each fertilizer treatment was applied in concentrations of 0.5 lb N/1000 ft^2/month, 1.0 lb N/1000 ft^2/month and 3.0 lb N/1000 ft^2/month. The urea, LIQUID LYSINE and aqueous lysine (HCl) were applied as foliar liquids, while Milorganite and granular lysine (HCl) were applied as granular fertilizers Plot size was 1 m×2 m set up as a randomized complete block. Plots were mowed at 0.5 inches before fertilizer application. Irrigation (0.15 inch) was applied following application. Plots were rated for turfgrass quality and color (scale of 1-10 where 10=dark green turf, 1=dead/brown turf, and 6=minimally acceptable turf) and phytotoxicity (scale of 0-5, where 5=worst, and 2=minimally objectionable) throughout the study period. Quality, color, and phytotoxicity were measured on 2 days before application (day −2) and day 2, day 5, day 15 and day 21 after application. All data was subject to statistical analysis and significant means were determined. Average turfgrass quality ratings for the treatments are presented in Table 9 and the quality results for application rates of 1.0 lb N/1000 ft^2/month are graphically presented in FIG. 4.

Bermuda grass [3] = assay: Phytotoxicity (% burn), Bermuda grass golf course fairways (Example 13)
Procedure: In this Example, the effect of a fertilizer comprising lysine on turfgrass growth was examined. The effects of lysine (HCl) and LIQUID LYSINE on a common type of golf course fairway quality turfgrass (Bermuda green) were compared with those of CoRoN® brand fertilizer.
Six fertilizer treatments comprising two concentrations of each fertilizer composition (Coron® (N—P—K, 14-2-14), LIQUID LYSINE (N—P—K, 10-2-1), and lysine (HCl) (N—P—K, 15-2-1)) were prepared and applied to 3 replications of Bermuda grass for use on golf course fairways. The lysine (HCl) was applied as a granular using a Scotts 2 foot drop spreader on a setting of 4.5. The solutions of LIQUID LYSINE and Coran were applied using a Birchmeier backpack sprayer with a 5 foot spray pattern. Each fertilizer treatment was applied in concentrations 3.0 lb N/1000 ft^2 and 6.0 lb N/1000 ft^2. Plot size was 5 ft×60 ft set up as a randomized complete block. Irrigation was applied following application, Plots were rated for turfgrass quality and color (scale of 1-10 where 10=dark green turf 1=dead/brown turf and 6=minimally acceptable turf) and phytotoxicity (% burn) throughout the study period and compared with two untreated plots. […] All data was subject to statistical analysis and significant means were determined.

[4] = Monthly Rate 0.5 lbs N/1000 ft^2, Day 2
[5] = Monthly Rate 0.5 lbs N/1000 ft^2, Day 5
[6] = Monthly Rate 0.5 lbs N/1000 ft^2, Day 15
[7] = Monthly Rate 0.5 lbs N/1000 ft^2, Day 21
[8] = Monthly Rate 0.5 lbs N/1000 ft^2, Day −2 (before application)
[9] = Monthly Rate 1.0 lbs N/1000 ft^2, Day 2
[10] = Monthly Rate 1.0 lbs N/1000 ft^2, Day 5
[11] = Monthly Rate 1.0 lbs N/1000 ft^2, Day 15
[12] = Monthly Rate 1.0 lbs N/1000 ft^2, Day 21
[13] = Monthly Rate 1.0 lbs N/1000 ft^2, Day −2 (before application)
[14] = Monthly Rate 3.0 lbs N/1000 ft^2, Day 2
[15] = Monthly Rate 3.0 lbs N/1000 ft^2, Day 5
[16] = Monthly Rate 3.0 lbs N/1000 ft^2, Day 15
[17] = Monthly Rate 3.0 lbs N/1000 ft^2, Day 21
[18] = Monthly Rate 3.0 lbs N/1000 ft^2, Day −2 (before application)

NC(N)=O [Urea, urea, reference compound]
Injury 1-9 (9 = no injury) ([1]; 1.09 Lbs. product/1000 square feet): 8.3
Injury 1-9 (9 = no injury) ([1]; 2.17 Lbs. product/1000 square feet): 8.7
Injury 1-9 (9 = no injury) ([1]; 6.51 Lbs. product/1000 square feet): 8.7
Color Ratings - Bermuda Grass (Bermuda grass [2]; [4]): 7.4
Quality Ratings - Bermuda Grass (Bermuda grass [2]; [4]): 7.5ab
Color Ratings - Bermuda Grass (Bermuda grass [2]; [5]): 7.6efg
Quality Ratings - Bermuda Grass (Bermuda grass [2]; [5]): 7.5cd
Color Ratings - Bermuda Grass (Bermuda grass [2]; [6]): 7.4de
Quality Ratings - Bermuda Grass (Bermuda grass [2]; [6]): 7.5de
Color Ratings - Bermuda Grass (Bermuda grass [2]; [7]): 7.6cd
Quality Ratings - Bermuda Grass (Bermuda grass [2]; [7]): 7.5f
Color Ratings - Bermuda Grass (Bermuda grass [2]; [8]): 6.5
Quality Ratings - Bermuda Grass (Bermuda grass [2]; [8]): 6.3
Color Ratings - Bermuda Grass (Bermuda grass [2]; [9]): 7.6
Quality Ratings - Bermuda Grass (Bermuda grass [2]; [9]): 7.5ab
Color Ratings - Bermuda Grass (Bermuda grass [2]; [10]): 8.0def
Quality Ratings - Bermuda Grass (Bermuda grass [2]; [10]): 7.9abc
Color Ratings - Bermuda Grass (Bermuda grass [2]; [11]): 7.3de
Quality Ratings - Bermuda Grass (Bermuda grass [2]; [11]): 7.6de
Color Ratings - Bermuda Grass (Bermuda grass [2]; [12]): 7.6cd
Quality Ratings - Bermuda Grass (Bermuda grass [2]; [12]): 7.6ef
Color Ratings - Bermuda Grass (Bermuda grass [2]; [13]): 6.5
Quality Ratings - Bermuda Grass (Bermuda grass [2]; [13]): 6.3
Color Ratings - Bermuda Grass (Bermuda grass [2]; [14]): 8.0
Quality Ratings - Bermuda Grass (Bermuda grass [2]; [14]): 8.1a
Color Ratings - Bermuda Grass (Bermuda grass [2]; [15]): 8.8ab
Quality Ratings - Bermuda Grass (Bermuda grass [2]; [15]): 8.3ab
Color Ratings - Bermuda Grass (Bermuda grass [2]; [16]): 7.5cde
Quality Ratings - Bermuda Grass (Bermuda grass [2]; [16]): 7.9de
Color Ratings - Bermuda Grass (Bermuda grass [2]; [17]): 7.9bcd
Quality Ratings - Bermuda Grass (Bermuda grass [2]; [17]): 7.8def
Color Ratings - Bermuda Grass (Bermuda grass [2]; [18]): 6.4
Quality Ratings - Bermuda Grass (Bermuda grass [2]; [18]): 6.1

Cl.NCCCC[C@H](N)C(=O)O [Lys (HCl) 15% N, L-lysine monohydrochloride]
Phytotoxicity (% Burn) - Bermuda grass (Bermuda grass [3]; 3.0 lb N/1000 ft^2, Day 7): 11.7bc %
Phytotoxicity (% Burn) - Bermuda grass (Bermuda grass [3]; 3.0 lb N/1000 ft^2, Day 12): 6.7b %
Phytotoxicity (% Burn) - Bermuda grass (Bermuda grass [3]; 3.0 lb N/1000 ft^2, Day 19): 1.7bc %
Phytotoxicity (% Burn) - Bermuda grass (Bermuda grass [3]; 3.0 lb N/1000 ft^2, Day 26): 0.0b %
Phytotoxicity (% Burn) - Bermuda grass (Bermuda grass [3]; 3.0 lb N/1000 ft^2, Day 33): 0.0a %
Phytotoxicity (% Burn) - Bermuda grass (Bermuda grass [3]; 3.0 lb N/1000 ft^2, Day 40): 0.0c %
Phytotoxicity (% Burn) - Bermuda grass (Bermuda grass [3]; 3.0 lb N/1000 ft^2, Day 47): 0.0c %
Phytotoxicity (% Burn) - Bermuda grass (Bermuda grass [3]; 6.0 lb N/1000 ft^2, Day 7): 21.7a %
Phytotoxicity (% Burn) - Bermuda grass (Bermuda grass [3]; 6.0 lb N/1000 ft^2, Day 12): 11.7a %
Phytotoxicity (% Burn) - Bermuda grass (Bermuda grass [3]; 6.0 lb N/1000 ft^2, Day 19): 5.0b %
Phytotoxicity (% Burn) - Bermuda grass (Bermuda grass [3]; 6.0 lb N/1000 ft^2, Day 26): 0.0b %
Phytotoxicity (% Burn) - Bermuda grass (Bermuda grass [3]; 6.0 lb N/1000 ft^2, Day 33): 0.0a %
Phytotoxicity (% Burn) - Bermuda grass (Bermuda grass [3]; 6.0 lb N/1000 ft^2, Day 40): 0.0c %
Phytotoxicity (% Burn) - Bermuda grass (Bermuda grass [3]; 6.0 lb N/1000 ft^2, Day 47): 0.0c %
